In PubChem BioAssay AID330 (DTP/NCI, 2004):
Several values for one entry are separate records, joined by “and”; a condition that tells them apart may be missing. Identical values can stand only once. Toxic doses and inconclusive results are not listed.

Test system: P388 leukemia ip, CD2F1 mice, survival T/C
Test: NCI In Vivo Anticancer Drug Screen. Data for tumor model P388 Leukemia (intraperitoneal) in CD2F1 (CDF1) mice
Conditions: endpoint: median survival time, higher = longer survival
How it was run: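 Mice carrying the transplanted tumor received test compound or vehicle. Survival was recorded in each group, and the value is the treated-group measurement divided by that of the vehicle-treated control group.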

C/C=C/C=C/c1cc2cc3c(c(O)c2c(=O)[nH]1)C1(CC3)C(O)=c2c(=O)c3c(=O)cc(OC)c(=O)c=3c(=O)c2=C1O (configuration not stated)
T/C (dose: 0.12 mg/kg/injection, schedule: Q01DX009 (ip), vehicle: other): 116 % of control
T/C (dose: 0.25 mg/kg/injection, schedule: Q01DX009 (ip), vehicle: other): 118 % of control
T/C (dose: 0.5 mg/kg/injection, schedule: Q01DX009 (ip), vehicle: other): 87 % of control and 100 % of control
T/C (dose: 0.75 mg/kg/injection, schedule: Q01DX009 (ip), vehicle: Klucel (hydroxypropylcellulose) (HPC)): 98 % of control
T/C (dose: 1.0 mg/kg/injection, schedule: Q01DX009 (ip), vehicle: other): 113 % of control
T/C (dose: 1.5 mg/kg/injection, schedule: Q01DX009 (ip), vehicle: Klucel (hydroxypropylcellulose) (HPC)): 99 % of control
T/C (dose: 1.5 mg/kg/injection, schedule: Q01DX009 (ip), vehicle: saline with Tween-80): 112 % of control
T/C (dose: 6.0 mg/kg/injection, schedule: Q01DX009 (ip), vehicle: Klucel (hydroxypropylcellulose) (HPC)): 156 % of control
T/C (dose: 8.0 mg/kg/injection, schedule: Q01DX009 (ip), vehicle: other): 123 % of control
T/C (dose: 12.0 mg/kg/injection, schedule: Q01DX009 (ip), vehicle: Klucel (hydroxypropylcellulose) (HPC)): 192 % of control
T/C (dose: 12.0 mg/kg/injection, schedule: Q01DX009 (ip), vehicle: saline with Tween-80): 87 % of control
T/C (dose: 63.0 micrograms/kg/injection, schedule: Q01DX009 (ip), vehicle: other): 101 % of control
T/C (dose: 63.0 micrograms/kg/injection, schedule: Q01DX009 (ip), vehicle: water): 101 % of control and 110 % of control
T/C (dose: 125.0 micrograms/kg/injection, schedule: Q01DX009 (ip), vehicle: other): 99 % of control
T/C (dose: 125.0 micrograms/kg/injection, schedule: Q01DX009 (ip), vehicle: water): 112 % of control and 119 % of control
T/C (dose: 250.0 micrograms/kg/injection, schedule: Q01DX009 (ip), vehicle: other): 102 % of control
T/C (dose: 250.0 micrograms/kg/injection, schedule: Q01DX009 (ip), vehicle: water): 119 % of control and 120 % of control
T/C (dose: 500.0 micrograms/kg/injection, schedule: Q01DX009 (ip), vehicle: other): 114 % of control
T/C (dose: 500.0 micrograms/kg/injection, schedule: Q01DX009 (ip), vehicle: water): 153 % of control
T/C (dose: 1000.0 micrograms/kg/injection, schedule: Q01DX009 (ip), vehicle: other): 115 % of control
T/C (dose: 1000.0 micrograms/kg/injection, schedule: Q01DX009 (ip), vehicle: water): 160 % of control and 178 % of control
T/C (dose: 2000.0 micrograms/kg/injection, schedule: Q01DX009 (ip), vehicle: water): 175 % of control

CC1C(c2ccccc2)OC(N2CCOCC2)C(C)(C)CN1C (configuration not stated)
T/C (dose: 50.0 mg/kg/injection, schedule: Q01DX005 (ip), vehicle: saline with Tween-80): 108 % of control and 93 % of control
T/C (dose: 100.0 mg/kg/injection, schedule: Q01DX005 (ip), vehicle: saline with Tween-80): 98 % of control and 101 % of control and 116 % of control
T/C (dose: 200.0 mg/kg/injection, schedule: Q01DX005 (ip), vehicle: saline with Tween-80): 101 % of control and 119 % of control and 121 % of control
T/C (dose: 400.0 mg/kg/injection, schedule: Q01DX005 (ip), vehicle: saline with Tween-80): 101 % of control

CC(=O)Nc1ccc(S(=O)(=O)NC(CCC(N)=O)C(=O)O)cc1 (configuration not stated)
T/C (dose: 100.0 mg/kg/injection, schedule: Q01DX001 (ip), vehicle: Klucel (hydroxypropylcellulose) (HPC)): 95 % of control
T/C (dose: 200.0 mg/kg/injection, schedule: Q01DX001 (ip), vehicle: Klucel (hydroxypropylcellulose) (HPC)): 100 % of control
T/C (dose: 400.0 mg/kg/injection, schedule: Q01DX001 (ip), vehicle: Klucel (hydroxypropylcellulose) (HPC)): 92 % of control

CC(C)(C)N1COCO[C@H]2CCC[C@@H]21
T/C (dose: 25.0 mg/kg/injection, schedule: Q04DX002 (ip), vehicle: Klucel (hydroxypropylcellulose) (HPC)): 100 % of control
T/C (dose: 50.0 mg/kg/injection, schedule: Q04DX002 (ip), vehicle: Klucel (hydroxypropylcellulose) (HPC)): 102 % of control
T/C (dose: 100.0 mg/kg/injection, schedule: Q04DX002 (ip), vehicle: Klucel (hydroxypropylcellulose) (HPC)): 114 % of control
T/C (dose: 200.0 mg/kg/injection, schedule: Q04DX002 (ip), vehicle: Klucel (hydroxypropylcellulose) (HPC)): 100 % of control and 123 % of control

O=C1c2cccnc2-c2ncccc21
T/C (dose: 60.0 mg/kg/injection, schedule: Q01DX005 (ip), vehicle: saline with Tween-80): 93 % of control
T/C (dose: 120.0 mg/kg/injection, schedule: Q01DX005 (ip), vehicle: saline with Tween-80): 91 % of control

O=c1[nH]cc([N+](=O)[O-])c(=O)[nH]1
T/C (dose: 25.0 mg/kg/injection, schedule: Q01DX009 (ip), vehicle: Klucel (hydroxypropylcellulose) (HPC)): 94 % of control
T/C (dose: 50.0 mg/kg/injection, schedule: Q01DX009 (ip), vehicle: Klucel (hydroxypropylcellulose) (HPC)): 99 % of control
T/C (dose: 100.0 mg/kg/injection, schedule: Q01DX009 (ip), vehicle: Klucel (hydroxypropylcellulose) (HPC)): 95 % of control
T/C (dose: 100.0 mg/kg/injection, schedule: Q01DX009 (ip), vehicle: distilled water + Tween-80): 102 % of control
T/C (dose: 200.0 mg/kg/injection, schedule: Q01DX009 (ip), vehicle: Klucel (hydroxypropylcellulose) (HPC)): 107 % of control
T/C (dose: 200.0 mg/kg/injection, schedule: Q01DX009 (ip), vehicle: distilled water + Tween-80): 100 % of control
T/C (dose: 400.0 mg/kg/injection, schedule: Q01DX009 (ip), vehicle: distilled water + Tween-80): 99 % of control
